Positions of bridges follow the written chain, without caps; N, C: chain ends. Non-standard residues stand in square brackets, D forms with d. Residues, ends and D or L forms follow the SMILES beside them. *: point of attachment. NH(CH2CH2O)2(CH2)6Cl = ClCCCCCCOCCOCCN*
How the values were obtained:
Gαi = Gαi (Homo sapiens, UniProt P63096); experiment: Nucleotide exchange step (GDP dissociation / GTPγS binding); format: biochemical; conditions: compared with Gαs
Experimental: (§1) Gα proteins were diluted to 400 nM in the EDTA buffer (20 mM HEPES 7.5, 150 mM NaCl, 1 mM EDTA-Na 8.0, 2 mM DTT). [^3H]GDP (1 mCi/mL, 25.2 μM) was added to a final concentration of 1.2 μM, followed by cyclic peptides addition. After incubation at 20° C. for 30 minutes, the same volume of assay buffer ([…] HEPES-Na 7.5, 150 mM NaCl, 2 mM MgCl2, and 1 mM GDP) was added to initiate [^3H]GDP dissociation. At various points, […] was removed and mixed with 390 μL of ice-cold wash buffer (20 mM HEPES 7.5, 150 mM NaCl, 20 mM MgCl2). The mixture was immediately filtered through a mixed cellulose membrane (25 mm, 0.22 μm) held by a microanalysis filter holder (EMD Millipore). The membrane was washed by ice-cold wash buffer (500 μL×3), put in a 6-mL plastic vial and air-dried (room temperature 1.5 h). 5 mL of CytoScint-ES Liquid Scintillation Cocktail was added to each vial. After incubation overnight at room temperature, the vial was used for liquid scintillation counting with a LS 6500 Multi-Purpose Scintillation Counter.
Gα proteins were diluted to 10 μM with dilution buffer (20 mM HEPES 7.5, 150 mM NaCl, 1 mM MgCl2, 2 mM DTT, and 20 μM GDP) and incubated with 5× stocks of cyclic peptides at room temperature for 2 hours. GTPγS binding was initiated by mixing with the reaction buffer at room temperature (50 nM [35S]GTPγS and 100 μM GTPγS in dilution buffer) at room temperature. […]

Gαs [1] = target: T1, Gαs (Homo sapiens, UniProt P63092); experiment: GTPγS binding assay ([35S]GTPγS); format: biochemical; design: made in house; host or cells: Escherichia coli BL21(DE3)
Experimental: Gα proteins were diluted to 10 μM with dilution buffer (20 mM HEPES 7.5, 150 mM NaCl, 1 mM MgCl2, 2 mM DTT, and 20 μM GDP) and incubated with 5× stocks of cyclic peptides at room temperature for 2 hours. GTPγS binding was initiated by mixing with the reaction buffer at room temperature (50 nM [35S]GTPγS and 100 μM GTPγS in dilution buffer) at room temperature. At various time points, 10 μL of the sample was removed and mixed with 390 μL of ice-cold wash buffer (20 mM HEPES 7.5, 150 mM NaCl, 20 mM MgCl2). The mixture was filtered through a mixed cellulose membrane (25 mm, 0.22 μm). The membrane was washed by ice-cold wash buffer (500 μL×3), put in a 6-mL plastic vial and air-dried (room temperature 1.5 h). 5 mL of CytoScint-ES Liquid Scintillation Cocktail (MP Biomedicals) was added to each vial. After incubation overnight at room temperature, the vial was used for liquid scintillation counting with a LS 6500 Multi-Purpose Scintillation Counter. A standard curve was generated using [35S]GTPγS. The radioactive activity (Counts per minute) of the samples were converted to the GTPγS concentration. The GTPγS binding curves were fitted by the software GraphPad Prism using the following equation to calculate the apparent GTPγS binding rates (kapp): […]
in which “Y” is the concentration of GTPγS that bound to Gα protein at time “X” (minutes).

Gαs [2] = target: T1, Gαs; experiment: GDP dissociation assay ([3H]GDP); format: biochemical; design: made in house; host or cells: Escherichia coli BL21(DE3)
Experimental: as §1
The GDP dissociation curves were fitted by the software GraphPad Prism using the following equation to calculate the dissociation rates (koff): […]
in which “Y” is the radioactivity (Counts per minute) of the sample at time “X” (minutes), and Y0 is the calculated radioactivity of the sample at the time point 0.

GDP-bound Gαi1 = target: T2, GDP-bound Gαi1 (Homo sapiens, UniProt P63096); experiment: Bio-layer interferometry (BLI) binding; conditions: highest concentration tested
T2 construct: hexahistidine (N, cleaved yes); made in house; host or cells: Escherichia coli BL21(DE3)
Experimental: (§2) BLI experiments were performed using an OctetRED384 instrument from ForteBio. All experiments were performed at 25° C. using BLI buffer (10 mM HEPES pH 7.4, 150 mM NaCl, 1 mM MgCl2, 0.05% Tween-20, 0.1% DMSO, 0.2 mM GppNHp or GDP). Cyclic peptides were diluted to a series of concentrations in BLI buffer plus 10 μM Biotin. Assays were conducted in Greiner 384well, black, flat bottom polypropylene plates containing the protein solutions, BLI buffer plus 10 μM Biotin for dissociation, and serial dilutions of cyclic peptides to be tested.
(§3) Biotinylated proteins were immobilized on Streptavidin biosensors by dipping sensors into plate wells containing protein solutions at a concentration of 100-150 nM. Protein loading is around 2-3 nm. Sensors loaded with proteins were moved and dipped into wells with BLI buffer plus 10 μM Biotin to block unlabeled Streptavidin. Association-dissociation cycles of compounds were started by moving and dipping sensors to cyclic peptides dilutions and BLI buffer plus 10 μM Biotin wells alternatively. Association and dissociation times were carefully determined to ensure full association and dissociation.
(§4) Raw kinetic data collected were processed with the Data Analysis software provided by the manufacturer using single reference subtraction in which buffer-only reference was subtracted (For GN13 analysis). Because GD20 analogs have a low level of background binding, we used a double reference subtraction (buffer-only reference and non-protein-loading reference) method to calculate their kinetics values. The resulting data were analyzed based on a 1:1 binding model from which kon and koff values were obtained and then Kd values were calculated.

GppNHp-bound Gαi1 = target: T3, GppNHp-bound Gαi1 (Homo sapiens, UniProt P63096); experiment: Bio-layer interferometry (BLI) binding; conditions: highest concentration tested
T3 construct: hexahistidine (N, cleaved yes); made in house; host or cells: Escherichia coli BL21(DE3)
Experimental: as §2, §3, §4

GDP-bound Gαs = target: T4, GDP-bound Gαs (Homo sapiens, UniProt P63092); experiment: Bio-layer interferometry (BLI) binding kinetics; conditions: GDP/Gαs
T4 construct: hexahistidine (N, cleaved yes); made in house; host or cells: Escherichia coli BL21(DE3)
Experimental: as §2, §3, §4

GppNHp-bound Gαs = GppNHp-bound Gαs (Homo sapiens, UniProt P63092); experiment: Bio-layer interferometry (BLI) binding kinetics; design: hexahistidine (N, cleaved yes); made in house; host or cells: Escherichia coli BL21(DE3); conditions: highest concentration tested
Experimental: as §2, §3, §4

[3] = system: HeLa cells stably expressing HaloTag; experiment: Chloroalkane penetration assay (CAPA); format: in vitro ADME, human
Source text: We first tested the cell permeability of GD20, as peptide-based chemical probes often suffer from poor cell permeability. […] In order to quantitatively evaluate the cell permeability of GD20, we used a recently developed HaloTag-based assay known as a chloroalkane penetration assay (CAPA) (Figure S6I) (Peraro et al., 2018). HeLa cells stably expressing HaloTag localized to the mitochondrial outer membrane were pulsed with chloroalkane-tagged molecules (ct-molecule), washed, chased with chloroalkane-tagged TAMRA fluorophore (ct-TAMRA), and finally analyzed by flow cytometry. A lower ct-TAMRA fluorescent signal indicates competition from a higher cytosolic concentration of ct-molecule. The carboxyl terminus of GD20 (G15) was conjugated with a chloroalkane tag to make ct-GD20 (FIG. 23A).
The cell lines used for CAPA were HeLa cell lines, generated by Chenoweth and co-workers, that stably express HaloTag exclusively in the cytosol (Peraro et al., 2018). Cells were seeded in a 96-well plate the day before the experiment at a density of 4×10^4 cells per well. The day of the experiment the media was aspirated, and 100 μL of cyclic peptide dilutions in DMEM were added to the cells. Plate was incubated for 19.5 h at 37° C. with 5% CO2. […] The cells were then trypsinized, quenched with DMEM, resuspended in PBS, and analyzed using a benchtop flow cytometer (CytoFLEX, Beckman).

[4] = target: T5, Biotinylated His/Avi-tagged Gαs used in the RaPID selection, GppNHp-bound (human, UniProt P63092 7-394, biotin on the Avi tag (BirA co-expressed)); experiment: RaPID comparison selection: peptide-mRNA-cDNA complexes on Gαs-immobilized streptavidin beads, qPCR and sequencing
T5 construct: Immobilized on streptavidin magnetic beads

[5] = target: Biotinylated Avi-tagged WT Gαs (residues 7-380 of the short isoform of human Gαs), GppNHp-bound (human) (UniProt P63092); experiment: TR-FRET competition: biotinylated Gαs WT (GppNHp-bound) with His-tagged adenylyl cyclase (VC1/IIC2) as the blocked partner; peptide concentration varied
[6] = target: T6, Biotinylated Avi-tagged WT Gαs (residues 7-380 of the short isoform of human Gαs), GDP-bound (human, UniProt P63092 7-394, biotin on the Avi tag (BirA)); experiment: TR-FRET competition: biotinylated Gαs or Gαi (GDP) against His-Gβγ(C68S)
T6 construct: Loaded with GDP; Same polypeptide as m7, other nucleotide state; also called biotinylated Gαs WT
Experimental: (§5) Biotinylated avi-Gαs (6-end, WT) and avi-Gαi (FL, WT) were diluted to 32 nM (8×) using assay buffer (1× PBS 7.4, 2 mM DTT, 0.1% BSA, 2 mM MgCl₂, 0.05% Tween plus 0.5 mM GDP), followed by mixing with a same volume of 8× streptavidin XL665 stock (32 nM in the assay buffer). 8× His-Gβ/γ (C68S) stock (16 nM) and 8× anti-6His-Tb cryptate stock (0.4 μg/mL) were added into the Gα/XL665 mixtures. Finally, 2× stocks of cyclic peptides were added with the protein mixtures. After incubation at room temperature for 2 hour at room temperature. […] FRET Signal was calculated as the ratio of [Read B]/[Read A].

[7] = target: T6, Biotinylated Avi-tagged WT Gαs …; experiment: TR-FRET competition: biotinylated GDP-bound Gαs WT against His-Gβγ(C68S)
Experimental: as §5

T5 sequence (P63092 other isoform, or with tags, fused parts or gaps limits assumed): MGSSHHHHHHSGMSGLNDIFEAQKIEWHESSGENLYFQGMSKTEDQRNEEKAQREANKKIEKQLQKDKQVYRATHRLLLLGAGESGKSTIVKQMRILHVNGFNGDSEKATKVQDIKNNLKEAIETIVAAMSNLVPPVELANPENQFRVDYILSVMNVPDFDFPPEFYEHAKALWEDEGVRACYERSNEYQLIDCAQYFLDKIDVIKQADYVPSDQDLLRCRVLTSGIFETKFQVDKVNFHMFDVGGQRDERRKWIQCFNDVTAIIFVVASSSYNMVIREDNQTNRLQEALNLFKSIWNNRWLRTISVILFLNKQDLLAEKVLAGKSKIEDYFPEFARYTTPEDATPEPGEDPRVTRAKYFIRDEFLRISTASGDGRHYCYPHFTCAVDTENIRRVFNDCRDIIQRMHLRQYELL
T1 sequence (P63092 1-380 isoform P63092-2): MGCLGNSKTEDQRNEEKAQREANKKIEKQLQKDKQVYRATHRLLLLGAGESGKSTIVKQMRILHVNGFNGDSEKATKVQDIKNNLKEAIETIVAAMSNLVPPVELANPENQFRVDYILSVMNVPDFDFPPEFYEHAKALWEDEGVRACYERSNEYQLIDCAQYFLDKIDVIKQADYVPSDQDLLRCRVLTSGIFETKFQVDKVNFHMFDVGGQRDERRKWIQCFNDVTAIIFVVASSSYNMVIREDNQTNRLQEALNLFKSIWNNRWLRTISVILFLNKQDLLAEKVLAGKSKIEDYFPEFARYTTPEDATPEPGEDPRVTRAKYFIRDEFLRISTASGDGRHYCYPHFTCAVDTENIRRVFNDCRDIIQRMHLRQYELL
T6 sequence (P63092 other isoform, or with tags, fused parts or gaps limits assumed): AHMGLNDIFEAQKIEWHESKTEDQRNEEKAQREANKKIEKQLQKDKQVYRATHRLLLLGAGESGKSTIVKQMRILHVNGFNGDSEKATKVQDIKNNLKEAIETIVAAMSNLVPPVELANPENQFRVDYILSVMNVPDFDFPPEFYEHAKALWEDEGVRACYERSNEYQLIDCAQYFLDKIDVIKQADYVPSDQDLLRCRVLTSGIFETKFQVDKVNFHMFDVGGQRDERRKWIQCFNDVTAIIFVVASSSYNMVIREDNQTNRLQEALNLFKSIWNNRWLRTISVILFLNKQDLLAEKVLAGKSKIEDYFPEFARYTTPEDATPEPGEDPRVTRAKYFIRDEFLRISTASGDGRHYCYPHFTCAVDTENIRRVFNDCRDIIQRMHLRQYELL
Sequence of Gαi (P63096 whole entry): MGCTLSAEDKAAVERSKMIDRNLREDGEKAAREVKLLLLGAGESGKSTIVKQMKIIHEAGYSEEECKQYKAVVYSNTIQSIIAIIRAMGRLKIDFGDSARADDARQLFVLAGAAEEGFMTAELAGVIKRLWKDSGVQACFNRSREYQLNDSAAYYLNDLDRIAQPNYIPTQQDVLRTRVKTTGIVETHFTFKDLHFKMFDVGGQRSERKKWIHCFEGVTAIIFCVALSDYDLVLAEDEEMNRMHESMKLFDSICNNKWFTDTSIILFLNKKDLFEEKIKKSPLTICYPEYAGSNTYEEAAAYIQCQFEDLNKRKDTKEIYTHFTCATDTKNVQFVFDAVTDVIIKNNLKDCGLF
T3 sequence (P63096 with tags, fused parts or gaps): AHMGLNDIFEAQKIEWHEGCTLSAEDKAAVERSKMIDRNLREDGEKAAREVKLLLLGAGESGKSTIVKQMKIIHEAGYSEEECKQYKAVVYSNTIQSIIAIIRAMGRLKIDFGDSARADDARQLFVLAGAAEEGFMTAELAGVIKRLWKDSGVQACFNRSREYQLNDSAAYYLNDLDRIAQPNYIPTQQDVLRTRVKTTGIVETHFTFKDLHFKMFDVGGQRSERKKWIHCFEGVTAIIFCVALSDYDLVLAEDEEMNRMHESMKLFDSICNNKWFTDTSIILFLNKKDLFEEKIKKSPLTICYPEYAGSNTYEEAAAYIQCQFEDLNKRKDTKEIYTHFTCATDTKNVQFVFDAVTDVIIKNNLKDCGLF
T2 sequence (P63096 with tags, fused parts or gaps): as above

CC[C@H](C)[C@@H]1NC(=O)[C@H](CC(C)C)NC(=O)[C@@H](Cc2ccc(O)cc2)NC(=O)CSC[C@@H](C(=O)NCC(N)=O)NC(=O)[C@@H]2CCCN2C(=O)[C@H](CC(C)C)NC(=O)[C@H](CC(N)=O)NC(=O)[C@H](Cc2ccccc2)NC(=O)[C@H](C)NC(=O)[C@H](Cc2c[nH]c3ccccc23)NC(=O)[C@H](CCC(N)=O)NC(=O)[C@H](CCCNC(=N)N)NC(=O)[C@H](Cc2ccccc2)NC(=O)[C@H]([C@@H](C)O)NC1=O [GD20] ({CH2CO}-[dY]LITFRQWAFNLPCG-NH2; thioether N-14)
sensitivity of the nucleotide exchange step of Gαi (Gαi): much less sensitive | effect on the apparent rate of GTPγS binding (kapp) to Gαs (Gαs [1]): drastically reducing | effect on Gαs GDP dissociation rates (koff) (Gαs [2]): drastically reducing | binding to GDP-bound Gαi1 (GDP-bound Gαi1): no detectable binding | binding to GppNHp-bound Gαi1 (GppNHp-bound Gαi1): no detectable binding | Kd (GDP-bound Gαs): 31.4 ± 0.7 nM | koff (GDP-bound Gαs): 0.00343 s⁻¹ | kon (GDP-bound Gαs): 109000 M⁻¹ s⁻¹ | binding to GppNHp-bound Gαs (GppNHp-bound Gαs): no detectable binding

CC[C@H](C)[C@@H]1NC(=O)[C@H](CC(C)C)NC(=O)[C@@H](Cc2ccc(O)cc2)NC(=O)CSC[C@@H](C(=O)NCC(=O)NCCOCCOCCCCCCCl)NC(=O)[C@@H]2CCCN2C(=O)[C@H](CC(C)C)NC(=O)[C@H](CC(N)=O)NC(=O)[C@H](Cc2ccccc2)NC(=O)[C@H](C)NC(=O)[C@H](Cc2c[nH]c3ccccc23)NC(=O)[C@H](CCC(N)=O)NC(=O)[C@H](CCCNC(=N)N)NC(=O)[C@H](Cc2ccccc2)NC(=O)[C@H]([C@@H](C)O)NC1=O [ct-GD20] ({CH2CO}-[dY]LITFRQWAFNLPCG-{NH(CH2CH2O)2(CH2)6Cl}; thioether N-14)
cell permeability (CAPA) [3]: cell permeable

B1: GN15 (peptide)
peptide: {CH2CO}-[dY]KYWDFDNFQELYCG-NH2
modifications: thioether N-14
SMILES: CC(C)C[C@@H]1NC(=O)[C@H](CCC(=O)O)NC(=O)[C@H](CCC(N)=O)NC(=O)[C@H](Cc2ccccc2)NC(=O)[C@H](CC(N)=O)NC(=O)[C@H](CC(=O)O)NC(=O)[C@H](Cc2ccccc2)NC(=O)[C@H](CC(=O)O)NC(=O)[C@H](Cc2c[nH]c3ccccc23)NC(=O)[C@H](Cc2ccc(O)cc2)NC(=O)[C@H](CCCCN)NC(=O)[C@@H](Cc2ccc(O)cc2)NC(=O)CSC[C@@H](C(=O)NCC(N)=O)NC(=O)[C@H](Cc2ccc(O)cc2)NC1=O
fold selectivity for GppNHp-bound over GDP-bound Gαs [4]: > 100 fold

B2: GN10 (peptide)
peptide: Ac-[dY]HEQFDNFCDLWCG-NH2
modifications: thioether (positions not given here); also: thioether partner Cys9 or Cys13 not settled
IC50 (read off the curve) [5]: 200 nM | fold selectivity for GppNHp-bound over GDP-bound Gαs [4]: > 100 fold

B3: GD20-F10L (peptide)
peptide: {CH2CO}-[dY]LITFRQWALNLPCG-NH2
modifications: thioether N-14
SMILES: CC[C@H](C)[C@@H]1NC(=O)[C@H](CC(C)C)NC(=O)[C@@H](Cc2ccc(O)cc2)NC(=O)CSC[C@@H](C(=O)NCC(N)=O)NC(=O)[C@@H]2CCCN2C(=O)[C@H](CC(C)C)NC(=O)[C@H](CC(N)=O)NC(=O)[C@H](CC(C)C)NC(=O)[C@H](C)NC(=O)[C@H](Cc2c[nH]c3ccccc23)NC(=O)[C@H](CCC(N)=O)NC(=O)[C@H](CCCNC(=N)N)NC(=O)[C@H](Cc2ccccc2)NC(=O)[C@H]([C@@H](C)O)NC1=O
notes: Single substitution F10L of GD20; also called cell permeable GD20 analog F10L
fold selectivity for Gαs over Gαi [6]: 100 fold | IC50 [7]: 14 nM
